Data published in patent US20230000870A1, “METHODS OF TREATING CANCER IN BIOMARKER-IDENTIFIED PATIENTS WITH INHIBITORS OF CYCLIN-DEPENDENT KINASE 7 (CDK7)” (Syros Pharmaceuticals, Inc., priority 2019, published 2023).
pIC50: −log10 of the molar value.

What was measured:
CDK9/Cyclin T1 complex = CDK9/Cyclin T1 complex (Homo sapiens, UniProt P50750); experiment: CDK9 kinase inhibition assay (Caliper/LabChip EZ Reader); type: biochemical; conditions: CDK9/Cyclin T1 8 nM, ATP 2 mM, 15 min at 27° C.
In short: (§1)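 Incubation times were set for ~20% (±5%) peptide phosphorylation by uninhibited enzyme: CDK7 35 min, CDK2 35 min (0.5 nM complex, 2 μM 5-FAM-CDK7tide, 2 mM MgCl2), CDK12 3 hr (50 nM, 2 μM 5-FAM-CDK9tide, 2 mM MgCl2), CDK9 15 min (8 nM, 2 μM 5-FAM-CDK9tide, 10 mM MgCl2). Read-out on LabChip EZ Reader, 27° C.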

HCC70 cells = experiment: Inhibition of proliferation of HCC70 cells (CyQUANT Direct, 72 hour); type: cell-based, human; conditions: read-out: Inhibition of Proliferation of HCC70 Cells (calculated IC50)
Description: HCC70 cells: HCC70 cells are a cell line derived from human triple negative breast cancer. Representative compounds of the invention were tested at different concentrations (from 4 μM to […]; 0.5 log serial dilutions) for their ability to inhibit the proliferation of HCC70 cells. Known CDK inhibitors dinaciclib or N-((1S,3R)-3-((5-chloro-4-(1H-indol-3-yl) pyrimidin-2-yl)amino)cyclohexyl)-5-((E)-4-(dimethylamino)but-2-enamido)picolinamide and triptolide were used as positive controls. Cells were grown in ATCC-formulated RPMI-1640 Medium (ATCC 30-2001)+10% FBS. The cells were cultured at 37° C. in a humidified chamber in the presence of 5% CO2. Proliferation assays were conducted over a 72 hour time period. CyQUANT® Direct Cell Proliferation Assay (Life Technologies, Chicago, Ill. USA) was used to assess the anti-proliferative effects of the compounds following manufacturer's directions and utilizing the reagents supplied with the CyQUANT® Direct Cell kit.

CDK2/Cyclin E1 complex = CDK2/Cyclin E1 complex (Homo sapiens, UniProt P24941); experiment: CDK2 kinase inhibition assay (Caliper/LabChip EZ Reader); type: biochemical; conditions: CDK2/Cyclin E1 0.5 nM, ATP 2 mM, 35 min at 27° C.
In short: as §1

[1] = target: T1, CDK12 (aa686-1082)/Cyclin K complex (Homo sapiens, UniProt Q9NYV4); experiment: CDK12 kinase inhibition assay (Caliper/LabChip EZ Reader); type: biochemical; conditions: CDK12 (aa686-1082)/Cyclin K 50 nM, ATP 2 mM, 3 hr at 27° C.
T1 construct: CDK12 (aa686-1082)/Cyclin K complex
In short: as §1

[2] = target: CDK7/Cyclin H/MAT1 complex (Homo sapiens, UniProt P50613); experiment: CDK7 kinase inhibition assay (Caliper/LabChip EZ Reader); type: biochemical; conditions: CDK7/Cyclin H/MAT1 6 nM, ATP 2 mM, 35 min at 27° C.
In short: as §1

T1 sequence (Q9NYV4 686-1082): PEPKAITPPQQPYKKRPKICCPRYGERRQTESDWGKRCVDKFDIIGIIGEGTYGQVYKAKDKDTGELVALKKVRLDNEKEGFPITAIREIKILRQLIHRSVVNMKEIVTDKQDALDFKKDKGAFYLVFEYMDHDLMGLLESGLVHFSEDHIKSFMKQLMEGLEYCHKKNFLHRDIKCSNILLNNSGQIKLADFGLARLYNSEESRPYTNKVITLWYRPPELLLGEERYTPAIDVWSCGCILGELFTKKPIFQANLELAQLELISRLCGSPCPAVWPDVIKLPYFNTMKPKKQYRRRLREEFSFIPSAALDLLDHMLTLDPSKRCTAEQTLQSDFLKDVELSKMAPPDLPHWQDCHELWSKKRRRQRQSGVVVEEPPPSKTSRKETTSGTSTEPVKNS
T1 sequence (O75909 whole entry partner, the tested form may be a part): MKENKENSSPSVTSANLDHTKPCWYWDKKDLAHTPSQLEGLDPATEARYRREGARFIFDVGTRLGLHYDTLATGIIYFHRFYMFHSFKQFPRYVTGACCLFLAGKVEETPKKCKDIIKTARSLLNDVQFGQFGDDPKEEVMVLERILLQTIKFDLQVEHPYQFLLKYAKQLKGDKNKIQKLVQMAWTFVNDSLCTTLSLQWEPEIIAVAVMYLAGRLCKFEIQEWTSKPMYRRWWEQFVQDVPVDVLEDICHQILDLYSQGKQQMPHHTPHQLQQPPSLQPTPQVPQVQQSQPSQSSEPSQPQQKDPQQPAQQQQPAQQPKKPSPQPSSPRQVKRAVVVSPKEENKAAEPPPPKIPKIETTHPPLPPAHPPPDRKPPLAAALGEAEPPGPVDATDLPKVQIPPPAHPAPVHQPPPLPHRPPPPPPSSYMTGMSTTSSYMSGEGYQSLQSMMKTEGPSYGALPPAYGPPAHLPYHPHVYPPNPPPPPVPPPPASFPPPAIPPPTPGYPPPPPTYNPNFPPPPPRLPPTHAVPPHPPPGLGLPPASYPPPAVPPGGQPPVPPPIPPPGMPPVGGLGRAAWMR
CDK7/Cyclin H/MAT1 complex, sequence (P50613 whole entry): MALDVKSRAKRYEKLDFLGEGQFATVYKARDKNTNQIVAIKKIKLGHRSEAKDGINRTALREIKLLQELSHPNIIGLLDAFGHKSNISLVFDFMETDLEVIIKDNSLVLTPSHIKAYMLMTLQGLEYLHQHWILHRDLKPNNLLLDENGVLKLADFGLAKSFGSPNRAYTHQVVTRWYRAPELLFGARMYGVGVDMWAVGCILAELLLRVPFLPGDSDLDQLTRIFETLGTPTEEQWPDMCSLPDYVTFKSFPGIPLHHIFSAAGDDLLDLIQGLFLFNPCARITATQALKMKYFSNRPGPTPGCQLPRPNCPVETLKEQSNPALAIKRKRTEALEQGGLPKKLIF
CDK7/Cyclin H/MAT1 complex, sequence (P51946 whole entry partner): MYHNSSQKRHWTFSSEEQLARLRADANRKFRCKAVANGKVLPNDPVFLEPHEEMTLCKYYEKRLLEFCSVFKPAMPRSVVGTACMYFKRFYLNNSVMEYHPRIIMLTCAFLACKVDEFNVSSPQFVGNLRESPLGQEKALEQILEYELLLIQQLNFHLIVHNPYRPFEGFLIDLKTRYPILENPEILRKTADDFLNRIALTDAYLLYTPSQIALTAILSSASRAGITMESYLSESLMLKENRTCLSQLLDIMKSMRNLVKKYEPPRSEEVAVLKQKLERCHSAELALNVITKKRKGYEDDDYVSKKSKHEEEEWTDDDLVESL
CDK7/Cyclin H/MAT1 complex, sequence (P51948 whole entry partner): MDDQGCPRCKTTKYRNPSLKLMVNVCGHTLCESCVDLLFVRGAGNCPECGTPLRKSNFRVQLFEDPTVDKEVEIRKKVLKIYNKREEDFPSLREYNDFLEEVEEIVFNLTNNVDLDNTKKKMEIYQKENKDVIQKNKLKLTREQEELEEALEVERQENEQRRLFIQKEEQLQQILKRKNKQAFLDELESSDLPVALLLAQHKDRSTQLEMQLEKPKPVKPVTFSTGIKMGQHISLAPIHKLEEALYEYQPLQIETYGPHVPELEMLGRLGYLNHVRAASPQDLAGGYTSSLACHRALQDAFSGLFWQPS
CDK9/Cyclin T1 complex, sequence (P50750 whole entry): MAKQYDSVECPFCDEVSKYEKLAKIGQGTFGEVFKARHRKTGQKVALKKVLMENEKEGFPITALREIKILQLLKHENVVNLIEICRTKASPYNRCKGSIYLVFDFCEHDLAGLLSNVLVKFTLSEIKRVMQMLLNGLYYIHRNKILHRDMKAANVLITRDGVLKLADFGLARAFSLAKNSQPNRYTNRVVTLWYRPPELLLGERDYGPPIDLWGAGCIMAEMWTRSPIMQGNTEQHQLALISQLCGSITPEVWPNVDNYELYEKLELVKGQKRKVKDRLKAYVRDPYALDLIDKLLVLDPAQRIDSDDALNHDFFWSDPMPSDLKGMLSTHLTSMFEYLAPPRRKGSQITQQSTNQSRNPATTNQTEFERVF
CDK9/Cyclin T1 complex, sequence (O60563 whole entry partner): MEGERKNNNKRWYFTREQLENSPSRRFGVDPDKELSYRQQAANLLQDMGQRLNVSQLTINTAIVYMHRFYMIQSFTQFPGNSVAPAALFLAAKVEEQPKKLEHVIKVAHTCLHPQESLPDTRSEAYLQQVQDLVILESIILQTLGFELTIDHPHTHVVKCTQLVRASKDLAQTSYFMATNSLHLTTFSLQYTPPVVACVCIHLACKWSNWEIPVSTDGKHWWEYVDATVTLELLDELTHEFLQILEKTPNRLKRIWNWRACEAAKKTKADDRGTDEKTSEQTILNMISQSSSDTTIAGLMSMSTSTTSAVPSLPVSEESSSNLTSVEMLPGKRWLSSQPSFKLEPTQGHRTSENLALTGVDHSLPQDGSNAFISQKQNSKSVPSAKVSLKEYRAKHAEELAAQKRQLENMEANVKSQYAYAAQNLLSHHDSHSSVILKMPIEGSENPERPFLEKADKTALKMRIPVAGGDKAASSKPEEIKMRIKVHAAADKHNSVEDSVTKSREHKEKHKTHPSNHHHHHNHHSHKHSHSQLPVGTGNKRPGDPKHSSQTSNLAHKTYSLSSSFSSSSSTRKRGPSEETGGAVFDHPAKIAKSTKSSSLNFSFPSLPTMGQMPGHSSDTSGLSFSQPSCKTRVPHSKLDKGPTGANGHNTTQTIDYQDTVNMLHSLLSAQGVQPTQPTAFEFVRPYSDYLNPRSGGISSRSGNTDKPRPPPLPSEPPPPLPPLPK

Row | Structure (SMILES) | pIC50 (CDK9/Cyclin T1 complex) | pIC50 (HCC70 cells) | pIC50 (CDK2/Cyclin E1 complex) | pIC50 [1] | pIC50 [2]
1 | FC(F)(F)c1cnc(N[C@H]2CCCNC2)nc1-c1c[nH]c2cc(-c3cccc4cnccc34)ccc12 [Compound 344] | ≤ 5.30 | 6.00 to 7.00 | 5.30 to 6.70 | 5.30 to 6.70 | 6.70 to 7.70
2 | Fc1cccc(-c2ccc3c(-c4nc(NC5CCCNC5)ncc4C(F)(F)F)c[nH]c3c2)c1 (stereo not drawn) [Compound 345] | ≤ 5.30 | 5.30 to 6.00 | ≤ 5.30 | ≤ 5.30 | 5.30 to 6.70
3 | CC(C)S(=O)(=O)c1ccc2c(-c3nc(NC4CCCNC4)ncc3C(F)(F)F)c[nH]c2c1 (stereo not drawn) [Compound 346] | 5.30 to 6.70 | 6.00 to 7.00 | 5.30 to 6.70 | 5.30 to 6.70 | 6.70 to 7.70
4 | O=S1(=O)CCn2cc(-c3nc(N[C@H]4CCCNC4)ncc3C(F)(F)F)c3cccc1c32 [Compound 348] | ≤ 5.30 | 6.00 to 7.00 | ≤ 5.30 | ≤ 5.30 | 6.70 to 7.70
5 | O=C(c1ccc2c(-c3nc(NC4CCCNC4)ncc3C(F)(F)F)c[nH]c2c1)N1CC(O)C(F)(F)C1 (stereo not drawn) [Compound 349] | 5.30 to 6.70 | 6.00 to 7.00 | 5.30 to 6.70 | 5.30 to 6.70 | > 7.70
6 | CC1(C)CCC(Nc2ncc(C(F)(F)F)c(-c3c[nH]c4cc(C#N)ccc34)n2)CN1 (stereo not drawn) [Compound 350] | ≤ 5.30 | 6.00 to 7.00 | ≤ 5.30 | 5.30 to 6.70 | 6.70 to 7.70
7 | N#Cc1ccc2c(-c3nc(N[C@@H]4CNCC[C@H]4F)ncc3C(F)(F)F)c[nH]c2c1 [Compound 351] | 5.30 to 6.70 | > 7.00 | 5.30 to 6.70 | 5.30 to 6.70 | > 7.70
8 | CC(C)(C)OC(=O)N1CCC[C@H](Nc2ncc(C(F)(F)F)c(-c3c[nH]c4cc(P(C)(C)=O)ccc34)n2)C1 [Compound 352] | ≤ 5.30 | 5.30 to 6.00 | ≤ 5.30 | ≤ 5.30 | ≤ 5.30
9 | CP(C)(=O)c1cccc2c(-c3nc(NC4CCCNC4)ncc3C(F)(F)F)c[nH]c12 (stereo not drawn) [Compound 353] | ≤ 5.30 | > 7.00 | 5.30 to 6.70 | 5.30 to 6.70 | > 7.70
10 | CP(C)(=O)c1ccc2c(-c3nc(NC4CCCNC4)ncc3C(F)(F)F)c[nH]c2c1 (stereo not drawn) [Compound 354] | ≤ 5.30 | 5.30 to 6.00 | ≤ 5.30 | 5.30 to 6.70 | 6.70 to 7.70
11 | N#Cc1ccc2c(-c3nc(NC4CNCCC4O)ncc3C(F)(F)F)c[nH]c2c1 (stereo not drawn) [Compound 355] | ≤ 5.30 | 6.00 to 7.00 | ≤ 5.30 | 5.30 to 6.70 | 6.70 to 7.70
12 | CCc1cnc(NC2CCCNC2)nc1-c1c[nH]c2c(S(=O)(=O)C(C)C)cccc12 (stereo not drawn) [Compound 356] | ≤ 5.30 | 6.00 to 7.00 | ≤ 5.30 | ≤ 5.30 | 6.70 to 7.70
13 | CN(C)S(=O)(=O)c1ccc2c(-c3nc(NC4CCCNC4)ncc3C(F)(F)F)c[nH]c2c1 (stereo not drawn) [Compound 357] | 5.30 to 6.70 | 5.30 to 6.00 | 5.30 to 6.70 | 5.30 to 6.70 | > 7.70
14 | CC(=O)c1ccc2c(-c3nc(N[C@H]4CCCNC4)ncc3C(F)(F)F)c[nH]c2c1 [Compound 359] | 5.30 to 6.70 | > 7.00 | 5.30 to 6.70 | 5.30 to 6.70 | > 7.70
15 | CCc1cnc(N[C@H]2CCCNC2)nc1-c1c[nH]c2c(F)c(C#N)ccc12 [Compound 360] | ≤ 5.30 | 5.30 to 6.00 | ≤ 5.30 | ≤ 5.30 | 6.70 to 7.70
16 | N#Cc1ccc2c(-c3nc(N[C@H]4CCCNC4)ncc3SC(F)F)c[nH]c2c1 [Compound 361] | 5.30 to 6.70 | 6.00 to 7.00 | ≤ 5.30 | 5.30 to 6.70 | 6.70 to 7.70
17 | CN1CCC[C@H](Nc2ncc(C(F)(F)F)c(-c3c[nH]c4cc(S(C)(=O)=O)ccc34)n2)C1 [Compound 364] | ≤ 5.30 | 5.30 to 6.00 | ≤ 5.30 | ≤ 5.30 | 6.70 to 7.70
18 | O=S(=O)(CF)c1ccc2c(-c3nc(NC4CCCNC4)ncc3C(F)(F)F)c[nH]c2c1 (stereo not drawn) [Compound 365] | 5.30 to 6.70 | 6.00 to 7.00 | 5.30 to 6.70 | 5.30 to 6.70 | > 7.70
